Test results from ChEMBL document CHEMBL5584333, “Evo312: An Evodiamine Analog and Novel PKCβI Inhibitor with Potent Antitumor Activity in Gemcitabine-Resistant Pancreatic Cancer” (J Med Chem, 2024).
Active and inactive are the calls of the source. No cut-off for these calls is given here.

How the values were obtained:
[1] = tested on: Gemcitabine-resistant PANC-1; test: In vivo inhibition of PKCbeta1 in male BALB/c nude mouse xenografted with human Gemcitabine-resistant PANC-1 cells assessed as reduction in PKCbeta1 expression in tumor at 10 mg/kg, ip administered three times in a week for 20 days by Western blot analysis; type: functional, organism-based; details: time 20.0 day
[2] = tested on: Gemcitabine-resistant PANC-1; test: Induction of cell cycle arrest in human Gemcitabine-resistant PANC-1 cells assessed as downregulation of Cdc2 protein expression level at 40 to 160 nM incubated for 24 hrs by Western blot analysis; type: functional, cell-based; details: dose 40-160 nM
[3] = tested on: Gemcitabine-resistant PANC-1; test: Cell cycle distribution in human Gemcitabine-resistant PANC-1 cells assessed as G0-G1 phase cells at 40 nM incubated for 24 hrs by RNase/PI staining based flow cytometric analysis (reference value: 45.21 %); type: functional
[4] = tested on: Gemcitabine-resistant PANC-1; test: Induction of cell cycle arrest in human Gemcitabine-resistant PANC-1 cells assessed as downregulation of cyclin D1 protein expression level at 40 to 160 nM incubated for 24 hrs by Western blot analysis; type: functional, cell-based; details: dose 40-160 nM
[5] = tested on: Gemcitabine-resistant PANC-1; test: Cell cycle distribution in human Gemcitabine-resistant PANC-1 cells assessed as S phase cells at 40 nM incubated for 24 hrs by RNase/PI staining based flow cytometric analysis (reference value: 17.32 %); type: functional
[6] = tested on: Gemcitabine-resistant PANC-1; test: Induction of apoptosis in human Gemcitabine-resistant PANC-1 cells assessed as upregulation of cleaved caspase-9 level at 160 nM incubated for 48 hrs by Western blot analysis; type: functional, cell-based
[7] = tested on: Gemcitabine-resistant PANC-1; test: Downregulation of PKCepsilon expression in human Gemcitabine-resistant PANC-1 cells at 40 to 160 nM incubated for 24 hrs by Western blotting; type: functional, cell-based; details: dose 40-160 nM
[8] = tested on: Gemcitabine-resistant PANC-1; test: Induction of apoptosis in human Gemcitabine-resistant PANC-1 cells assessed as total cell death at 40 nM incubated for 48 hrs by Annexin V-FITC/PI staining based flow cytometric analysis relative to control; type: functional
[9] = tested on: Gemcitabine-resistant PANC-1; test: Cell cycle distribution in human Gemcitabine-resistant PANC-1 cells assessed as G2/M phase cells at 160 nM incubated for 24 hrs by RNase/PI staining based flow cytometric analysis (reference value: 37.53 %); type: functional
[10] = target: T1, Signal transducer and activator of transcription 5A (Homo sapiens) (UniProt P42229); test: Inhibition of STAT5 phosphorylation in human Gemcitabine-resistant PANC-1 cells at 160 nM incubated for 24 hrs by phospho-kinase array analysis; type: cell-based
T1 sequence (whole entry): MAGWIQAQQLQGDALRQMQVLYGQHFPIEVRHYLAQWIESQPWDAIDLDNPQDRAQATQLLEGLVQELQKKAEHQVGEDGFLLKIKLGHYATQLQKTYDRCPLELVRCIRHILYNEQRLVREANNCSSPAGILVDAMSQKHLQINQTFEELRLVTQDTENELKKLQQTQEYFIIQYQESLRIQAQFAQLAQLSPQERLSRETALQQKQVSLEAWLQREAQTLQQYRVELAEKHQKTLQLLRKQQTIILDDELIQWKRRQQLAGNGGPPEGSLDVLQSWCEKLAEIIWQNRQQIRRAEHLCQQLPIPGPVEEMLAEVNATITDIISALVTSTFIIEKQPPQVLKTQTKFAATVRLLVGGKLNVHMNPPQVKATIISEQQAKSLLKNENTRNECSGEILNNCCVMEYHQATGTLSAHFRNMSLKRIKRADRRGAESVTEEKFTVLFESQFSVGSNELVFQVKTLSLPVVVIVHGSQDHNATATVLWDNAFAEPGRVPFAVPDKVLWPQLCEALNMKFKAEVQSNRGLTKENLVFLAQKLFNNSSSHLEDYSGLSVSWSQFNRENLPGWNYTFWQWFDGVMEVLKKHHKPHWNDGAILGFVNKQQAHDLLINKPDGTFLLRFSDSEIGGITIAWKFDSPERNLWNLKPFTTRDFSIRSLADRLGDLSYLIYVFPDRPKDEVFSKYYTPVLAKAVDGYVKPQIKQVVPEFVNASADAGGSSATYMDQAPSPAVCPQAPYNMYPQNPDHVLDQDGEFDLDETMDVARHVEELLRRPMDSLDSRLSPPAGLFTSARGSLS

[11] = target: Glycogen synthase kinase-3 beta (Homo sapiens) (UniProt P49841); test: Inhibition of GSK3beta phosphorylation in human Gemcitabine-resistant PANC-1 cells at 160 nM incubated for 24 hrs by phospho-kinase array analysis; type: cell-based
[12] = tested on: Gemcitabine-resistant PANC-1; test: Cytotoxicity against human Gemcitabine-resistant PANC-1 cells assessed as inhibition of cell growth incubated for 72 hrs by SRB assay; type: functional, cell-based; details: Gemcitabine-resistant PANC-1, 72 h
[13] = tested on: Gemcitabine-resistant PANC-1; test: Downregulation of p-GSK3beta expression in human Gemcitabine-resistant PANC-1 cells at 40 to 160 nM incubated for 24 hrs by Western blotting; type: functional, cell-based; details: dose 40-160 nM
[14] = target: Serine/threonine-protein kinase AKT (Homo sapiens) (UniProt P31751+Q9Y243+P31749); test: Inhibition of Akt phosphorylation in human Gemcitabine-resistant PANC-1 cells at 160 nM incubated for 24 hrs by phospho-kinase array analysis; type: cell-based
[15] = tested on: Gemcitabine-resistant PANC-1; test: Induction of apoptosis in human Gemcitabine-resistant PANC-1 cells assessed as total cell death at 160 nM incubated for 48 hrs by Annexin V-FITC/PI staining based flow cytometric analysis relative to control; type: functional
[16] = tested on: Gemcitabine-resistant PANC-1; test: Downregulation of PKCbeta1expression in human Gemcitabine-resistant PANC-1 cells at 100 nM incubated for 24 hrs by Western blot analysis; type: functional, cell-based
[17] = tested on: Gemcitabine-resistant PANC-1; test: Effect on GSK3beta expression in human Gemcitabine-resistant PANC-1 cells at 40 to 160 nM by Western blot analysis; type: functional, cell-based; details: dose 40-160 nM
[18] = tested on: Gemcitabine-resistant PANC-1; test: Effect on PRAS40 expression in human Gemcitabine-resistant PANC-1 cells at 40 to 160 nM by Western blot analysis; type: functional, cell-based; details: dose 40-160 nM
[19] = tested on: Gemcitabine-resistant PANC-1; test: Induction of apoptosis in human Gemcitabine-resistant PANC-1 cells assessed as total cell death at 80 nM incubated for 48 hrs by Annexin V-FITC/PI staining based flow cytometric analysis relative to control; type: functional
[20] = tested on: Gemcitabine-resistant PANC-1; test: Cell cycle distribution in human Gemcitabine-resistant PANC-1 cells assessed as S phase cells at 160 nM incubated for 24 hrs by RNase/PI staining based flow cytometric analysis (reference value: 17.32 %); type: functional
[21] = tested on: Gemcitabine-resistant PANC-1; test: Cell cycle distribution in human Gemcitabine-resistant PANC-1 cells assessed as G2/M phase cells at 80 nM incubated for 24 hrs by RNase/PI staining based flow cytometric analysis (reference value: 37.53 %); type: functional
[22] = tested on: Gemcitabine-resistant PANC-1; test: Downregulation of p-STAT5 expression in human Gemcitabine-resistant PANC-1 cells at 40 to 160 nM incubated for 24 hrs by Western blotting; type: functional, cell-based; details: dose 40-160 nM
[23] = tested on: Gemcitabine-resistant PANC-1; test: Cell cycle distribution in human Gemcitabine-resistant PANC-1 cells assessed as S phase cells at 80 nM incubated for 24 hrs by RNase/PI staining based flow cytometric analysis (reference value: 17.32 %); type: functional
[24] = tested on: PANC-1; test: Antiproliferative activity against human PANC-1 cells transfected with PKCbeta1 siRNA assessed as reduction in cell viability at 0.016 to 10 uM incubated for 72 hrs by MTT assay; type: functional, cell-based; details: dose 0.016-10 µM
[25] = tested on: Gemcitabine-resistant PANC-1; test: Cell cycle distribution in human Gemcitabine-resistant PANC-1 cells assessed as G0-G1 phase cells at 160 nM incubated for 24 hrs by RNase/PI staining based flow cytometric analysis (reference value: 45.21 %); type: functional

Sequence of Serine/threonine-protein kinase AKT (Homo sapiens) (P31749 whole entry, looked up): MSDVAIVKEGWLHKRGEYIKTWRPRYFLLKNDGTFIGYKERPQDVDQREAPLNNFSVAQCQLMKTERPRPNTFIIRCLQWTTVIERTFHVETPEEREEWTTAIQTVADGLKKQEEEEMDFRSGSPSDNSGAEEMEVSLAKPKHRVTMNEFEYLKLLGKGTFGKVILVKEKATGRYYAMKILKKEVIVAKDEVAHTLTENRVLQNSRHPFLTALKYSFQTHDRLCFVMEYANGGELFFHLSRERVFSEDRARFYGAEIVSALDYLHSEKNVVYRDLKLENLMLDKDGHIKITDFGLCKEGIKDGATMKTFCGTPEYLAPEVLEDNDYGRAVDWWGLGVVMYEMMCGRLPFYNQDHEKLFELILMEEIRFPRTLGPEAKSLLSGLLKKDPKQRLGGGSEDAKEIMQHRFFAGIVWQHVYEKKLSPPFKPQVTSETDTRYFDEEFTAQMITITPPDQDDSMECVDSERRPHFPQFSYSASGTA
Sequence of Serine/threonine-protein kinase AKT (Homo sapiens) (P31751 whole entry, looked up): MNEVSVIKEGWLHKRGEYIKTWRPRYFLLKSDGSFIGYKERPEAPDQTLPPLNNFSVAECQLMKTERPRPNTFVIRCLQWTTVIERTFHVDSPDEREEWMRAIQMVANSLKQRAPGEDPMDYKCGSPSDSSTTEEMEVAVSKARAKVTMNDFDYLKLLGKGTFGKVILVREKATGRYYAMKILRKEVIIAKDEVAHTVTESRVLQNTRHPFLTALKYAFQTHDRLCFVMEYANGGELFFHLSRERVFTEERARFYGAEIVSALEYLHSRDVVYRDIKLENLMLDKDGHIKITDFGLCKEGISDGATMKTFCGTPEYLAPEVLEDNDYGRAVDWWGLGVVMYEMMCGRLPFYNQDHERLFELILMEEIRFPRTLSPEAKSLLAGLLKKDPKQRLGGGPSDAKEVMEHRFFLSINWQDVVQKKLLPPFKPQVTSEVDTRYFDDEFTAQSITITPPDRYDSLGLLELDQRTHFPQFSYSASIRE
Sequence of Serine/threonine-protein kinase AKT (Homo sapiens) (Q9Y243 whole entry, looked up): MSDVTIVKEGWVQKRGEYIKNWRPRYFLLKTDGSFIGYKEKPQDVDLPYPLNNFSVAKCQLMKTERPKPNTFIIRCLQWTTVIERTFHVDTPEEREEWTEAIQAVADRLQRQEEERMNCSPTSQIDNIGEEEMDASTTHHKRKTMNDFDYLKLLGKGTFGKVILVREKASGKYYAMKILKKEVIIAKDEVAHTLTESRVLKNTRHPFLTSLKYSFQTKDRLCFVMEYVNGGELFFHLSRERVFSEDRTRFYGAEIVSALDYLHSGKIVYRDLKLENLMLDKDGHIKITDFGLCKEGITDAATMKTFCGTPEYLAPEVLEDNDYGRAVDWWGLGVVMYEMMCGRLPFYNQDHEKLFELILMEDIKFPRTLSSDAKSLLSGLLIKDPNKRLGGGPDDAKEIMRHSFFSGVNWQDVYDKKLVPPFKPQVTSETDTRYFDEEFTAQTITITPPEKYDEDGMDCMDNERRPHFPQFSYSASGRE
Sequence of Glycogen synthase kinase-3 beta (Homo sapiens) (P49841 whole entry, looked up): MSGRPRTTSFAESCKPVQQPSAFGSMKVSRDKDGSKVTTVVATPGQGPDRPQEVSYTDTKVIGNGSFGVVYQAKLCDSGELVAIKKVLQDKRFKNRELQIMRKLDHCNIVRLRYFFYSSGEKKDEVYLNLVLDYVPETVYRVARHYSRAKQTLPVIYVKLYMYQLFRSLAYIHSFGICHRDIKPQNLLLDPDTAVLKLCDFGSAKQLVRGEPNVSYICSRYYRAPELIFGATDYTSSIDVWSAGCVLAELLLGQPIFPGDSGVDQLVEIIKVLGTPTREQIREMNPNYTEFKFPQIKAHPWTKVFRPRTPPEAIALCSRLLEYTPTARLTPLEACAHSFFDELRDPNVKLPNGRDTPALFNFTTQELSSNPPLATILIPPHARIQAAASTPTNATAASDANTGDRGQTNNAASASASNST

## CC(=O)Oc1ccc2[nH]c3c(c2c1)CCN1C(=O)c2ccccc2N(C)[C@H]31
[1]
  inhibition: Active
[2]
  Activity: Active
[3]
  Activity: 42.91%
[4]
  Activity: Active
[5]
  Activity: 17.71%
[6]
  Activity: Active
[7]
  Activity: inactive
[8]
  Activity: 15.83%
[9]
  Activity: 58.51%
[10]
  inhibition: Active
[11]
  inhibition: Active
[12]
  IC50: 70 nM
[13]
  Activity: Active
[14]
  inhibition: Active
[15]
  Activity: 24.95%
[16]
  Activity: Active
[17]
  Activity: inactive
[18]
  Activity: inactive
[19]
  Activity: 20.63%
[20]
  Activity: 14.05%
[21]
  Activity: 48.98%
[22]
  Activity: Active
[23]
  Activity: 15.94%
[24]
  Activity: inactive
[25]
  Activity: 26.28%
